ChEMBL document CHEMBL1126458, “Structurally novel antiarrhythmic / antioxidant quinazolines” (Bioorg Med Chem Lett, 1992)
≈ marks a conversion by molar mass, not a printed value.

Assays:
[1] = Oxidation potential as carbon paste disc electrode against a Ag/AgCl reference electrode
Homo sapiens [2] = species on record: Homo sapiens; assay: Inhibition of C5a-induced luminol dependent chemiluminescence of human neutrophils; assay type: functional
Oryctolagus cuniculus = species on record: Oryctolagus cuniculus; assay: In vitro inhibition of iron-dependent peroxidation of rabbit brain vesicular membrane lipids; assay type: functional
Canis familiaris [3] = species on record: Canis familiaris; assay: Action potential duration at 50% of repolarization was determined at 10 uM concentration on Isolated Canine Purkinje Fibers; assay type: functional, Canis lupus familiaris, Purkinje fiber
Canis familiaris [4] = species on record: Canis familiaris; assay: Maximal rate of depolarization at 10 uM concentration on Isolated Canine Purkinje Fibers; assay type: functional; settings: Canis lupus familiaris, Purkinje fiber
Canis familiaris [5] = species on record: Canis familiaris; assay: Action potential duration at 95% of repolarization was determined at 10 uM concentration on Isolated Canine Purkinje Fibers; assay type: functional, Canis lupus familiaris, Purkinje fiber
Canis familiaris [6] = species on record: Canis familiaris; assay: Resting potential on Isolated Canine Purkinje Fibers at 10 uM concentration; assay type: functional, Canis lupus familiaris, Purkinje fiber
Canis familiaris [7] = species on record: Canis familiaris; assay: Action potential amplitude at 10 uM concentration on Isolated Canine Purkinje Fibers was determined; assay type: functional, Canis lupus familiaris, Purkinje fiber
Canis familiaris [8] = species on record: Canis familiaris; assay: Compound was evaluated for conduction time from stimulating to intracellular recording electrode at 10 uM concentration on Isolated Canine Purkinje Fibers; assay type: functional, Canis lupus familiaris, Purkinje fiber
[9] = Plasma concentration in dogs when measured 1 and 5 hours following initiation of reperfusion at 60 min; assay type: ADME, organism-based, Canis lupus familiaris; settings: dog
Canis familiaris [10] = species on record: Canis familiaris; assay: Action potential amplitude at 100 uM concentration on Isolated Canine Purkinje Fibers was determined; assay type: functional, Canis lupus familiaris, Purkinje fiber
[11] = Plasma concentration in dogs when measured 1 and 5 hours following initiation of reperfusion at 300 min; assay type: ADME, organism-based, Canis lupus familiaris; settings: dog
Canis familiaris [12] = species on record: Canis familiaris; assay: Resting potential on Isolated Canine Purkinje Fibers at 100 uM concentration; assay type: functional, Canis lupus familiaris, Purkinje fiber
Canis familiaris [13] = species on record: Canis familiaris; assay: Compound was evaluated for conduction time from stimulating to intracellular recording electrode at 100 uM concentration on Isolated Canine Purkinje Fibers; assay type: functional, Canis lupus familiaris, Purkinje fiber
[14] = Plasma concentration in dogs when measured 1 and 5 hours following initiation of reperfusion at 30 min; assay type: ADME, organism-based, Canis lupus familiaris; settings: dog
Canis familiaris [15] = species on record: Canis familiaris; assay: Maximal rate of depolarization at 100 uM concentration on Isolated Canine Purkinje Fibers; assay type: functional; settings: Canis lupus familiaris, Purkinje fiber
Canis familiaris [16] = species on record: Canis familiaris; assay: Action potential duration at 50% of repolarization was determined at 100 uM concentration on Isolated Canine Purkinje Fibers; assay type: functional, Canis lupus familiaris, Purkinje fiber
Homo sapiens [17] = species on record: Homo sapiens; assay: Inhibition of C5a-induced luminol dependent chemiluminescence of human neutrophils; NS - Not sufficiently soluble in saline for testing; assay type: functional
Homo sapiens [18] = species on record: Homo sapiens; assay: Inhibition of C5a-induced luminol dependent chemiluminescence of human neutrophils; NA - compound found inactive at 10 uM; assay type: functional

Compound | E1/2 [1] | EC50 (Homo sapiens [2]) | MIC (Oryctolagus cuniculus) | APD50 (Canis familiaris [3]) | Vmax (Canis familiaris [4]) | APD95 (Canis familiaris [5]) | RP (Canis familiaris [6]) | APA (Canis familiaris [7]) | CT (Canis familiaris [8]) | also measured
CCN(CC)c1nc(NCCNC(=O)c2cc(OC)c(O)c(OC)c2)c2ccccc2n1 | 340 mV | 3300 nM | > 100 µM | – | – | – | – | – | – | –
CCN(CC)c1nc(NCCNC(=O)c2ccc(F)cc2)c2ccccc2n1.O=C(O)C(=O)O | – | – | – | -48 ms | -54 V s-1 | 1 ms | -3 mV | -15 mV | 72 ms | –
CCN(CC)c1nc(NCCNC(=O)c2cc(OC)c(OC)c(OC)c2)c2ccccc2n1 [listing 1 of 2 here] | – | – | – | -46 ms | – | -24 ms | -4 mV | -14.4 mV | 123 ms | –
CCN(CC)c1nc(NCCNC(=O)c2ccc(OC)cc2)c2ccccc2n1.O=C(O)C(=O)O | – | – | – | -35 ms | -30 V s-1 | -5 ms | -6 mV | -11 mV | 17 ms | –
CCN(CC)c1nc(NCCNC(=O)c2cc(OC)c(OC)c(OC)c2)c2ccccc2n1 [listing 2 of 2 here] | > 600 mV | – | – | – | -40 V s-1 | – | – | – | – | –
CCN(CC)c1nc(NCCNC(=O)c2cc(O)c(O)c(OC)c2)c2ccccc2n1 | 130 mV | 900 nM | 10 µM (≈ 4.25 µg/mL) | – | – | – | – | – | – | –
CCN(CC)c1nc(NCCNC(=O)c2cc(O)c(OC)c(O)c2)c2ccccc2n1 | 320 mV | 9500 nM | > 100 µM | – | – | – | – | – | – | –
CCN(CC)c1nc(NCCNC(=O)c2cc(O)c(O)c(O)c2)c2ccccc2n1.CS(=O)(=O)O | 15 mV | 300 nM | 3 µM | -1 ms | -2 V s-1 | 1 ms | 0 mV | 0 mV | 7 ms | concentration at 60 min [9]: 1700 ng/mL; APD50 (Canis familiaris [10]): -13 ms; concentration at 5 h [11]: 1300 ng/mL; RP (Canis familiaris [12]): -4 mV; APA (Canis familiaris [13]): -9 mV; CT (Canis familiaris [13]): 11 ms; concentration at 30 min [14]: 240 ng/mL; Vmax (Canis familiaris [15]): -32 V s-1; APD95 (Canis familiaris [16]): 11 ms
CCN(CC)c1nc(NCCNC(=O)c2ccc(C(F)(F)F)cc2)c2ccccc2n1.O=C(O)C(=O)O | – | – | – | -24 ms | -62 V s-1 | 2 ms | -7 mV | -23 mV | 79 ms | –
CCN(CC)c1nc(NCCNC(=O)c2ccccc2OC)c2ccccc2n1 | – | – | – | -24 ms | -71 V s-1 | 15 ms | -15 mV | -31 mV | 71 ms | –
CCN(CC)c1nc(NCCNC(=O)c2ccccc2)c2ccccc2n1.O=C(O)C(=O)O | – | – | – | -34 ms | -43 V s-1 | -2 ms | -3 mV | -15 mV | 119 ms | –
CCN(CC)c1nc(NCCNC(=O)c2cc(O)c(OC)c(OC)c2)c2ccccc2n1.CS(=O)(=O)O | 440 mV | – | > 100 µM | – | – | – | – | – | – | EC50 (Homo sapiens [17]): Not Active
CCN(CC)c1nc(NCCNC(=O)c2cc(OC)c(OC)c(OC)c2)c2ccccc2n1.CS(=O)(=O)O | – | – | > 100 µM | – | – | – | – | – | – | EC50 (Homo sapiens [18]): Not Active
